In ChEMBL document CHEMBL1145874, “Discovery and SAR of novel, potent and selective protein tyrosine phosphatase 1B inhibitors” (Bioorg Med Chem Lett, 2003):

How the values were obtained:
[1] = molecular target: T1, Receptor-type tyrosine-protein phosphatase C (Homo sapiens, UniProt P08575); experiment: Inhibitory potency against CD45 Phosphatase
T1 sequence (P08575 whole entry): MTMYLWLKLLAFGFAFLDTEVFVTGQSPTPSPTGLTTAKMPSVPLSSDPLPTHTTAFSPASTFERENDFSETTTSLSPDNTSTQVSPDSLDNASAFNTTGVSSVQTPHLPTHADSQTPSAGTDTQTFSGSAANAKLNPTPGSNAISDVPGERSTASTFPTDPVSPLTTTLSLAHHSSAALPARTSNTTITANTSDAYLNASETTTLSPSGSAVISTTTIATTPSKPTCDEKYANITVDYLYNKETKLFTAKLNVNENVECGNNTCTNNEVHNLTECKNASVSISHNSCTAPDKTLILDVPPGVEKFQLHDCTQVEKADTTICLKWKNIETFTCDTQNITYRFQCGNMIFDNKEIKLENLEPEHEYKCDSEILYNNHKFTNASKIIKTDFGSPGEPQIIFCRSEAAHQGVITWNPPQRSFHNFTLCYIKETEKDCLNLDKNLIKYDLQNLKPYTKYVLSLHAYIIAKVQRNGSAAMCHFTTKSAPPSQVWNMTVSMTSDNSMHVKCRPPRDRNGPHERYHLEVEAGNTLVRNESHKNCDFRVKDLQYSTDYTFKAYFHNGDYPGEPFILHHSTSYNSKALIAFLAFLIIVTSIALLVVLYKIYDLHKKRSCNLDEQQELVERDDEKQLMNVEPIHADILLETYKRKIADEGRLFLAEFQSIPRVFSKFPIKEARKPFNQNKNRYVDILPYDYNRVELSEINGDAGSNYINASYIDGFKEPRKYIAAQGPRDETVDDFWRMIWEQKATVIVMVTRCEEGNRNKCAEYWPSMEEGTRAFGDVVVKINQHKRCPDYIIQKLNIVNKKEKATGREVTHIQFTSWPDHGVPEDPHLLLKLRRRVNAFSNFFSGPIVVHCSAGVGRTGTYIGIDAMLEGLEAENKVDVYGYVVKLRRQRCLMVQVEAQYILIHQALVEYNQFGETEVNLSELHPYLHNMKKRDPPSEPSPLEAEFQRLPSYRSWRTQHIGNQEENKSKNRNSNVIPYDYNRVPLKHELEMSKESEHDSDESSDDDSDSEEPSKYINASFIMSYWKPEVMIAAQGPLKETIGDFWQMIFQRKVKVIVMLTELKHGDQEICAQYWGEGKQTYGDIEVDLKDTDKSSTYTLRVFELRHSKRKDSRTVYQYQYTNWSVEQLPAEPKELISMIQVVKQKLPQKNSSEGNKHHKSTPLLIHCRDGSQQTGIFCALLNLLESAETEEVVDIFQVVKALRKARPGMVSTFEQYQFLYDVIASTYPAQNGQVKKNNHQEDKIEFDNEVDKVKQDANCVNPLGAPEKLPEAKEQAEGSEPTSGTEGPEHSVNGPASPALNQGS

[2] = molecular target: T2, M-phase inducer phosphatase 3 (Homo sapiens, UniProt P30307); experiment: Inhibitory potency against Cell division cycle 25 degree C
T2 sequence (P30307 whole entry): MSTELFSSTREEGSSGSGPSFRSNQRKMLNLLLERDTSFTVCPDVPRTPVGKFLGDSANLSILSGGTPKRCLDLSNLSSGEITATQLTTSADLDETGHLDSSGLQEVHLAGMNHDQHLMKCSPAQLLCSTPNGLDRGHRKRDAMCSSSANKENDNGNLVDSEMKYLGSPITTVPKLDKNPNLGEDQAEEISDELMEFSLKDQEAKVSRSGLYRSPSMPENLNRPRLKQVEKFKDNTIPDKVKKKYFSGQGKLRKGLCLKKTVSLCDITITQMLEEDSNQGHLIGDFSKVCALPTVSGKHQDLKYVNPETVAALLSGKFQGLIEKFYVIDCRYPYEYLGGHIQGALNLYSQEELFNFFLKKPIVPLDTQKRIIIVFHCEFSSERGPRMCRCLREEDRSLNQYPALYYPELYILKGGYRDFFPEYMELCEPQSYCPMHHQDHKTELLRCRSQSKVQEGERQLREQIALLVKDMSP

[3] = molecular target: Receptor-type tyrosine-protein phosphatase F (Homo sapiens, UniProt P10586); experiment: Inhibitory potency against LAR
[4] = molecular target: Tyrosine-protein phosphatase non-receptor type 2 (Homo sapiens, UniProt P17706); experiment: Inhibition of T-cell Protein Tyrosine Phosphatase (TCPTP)
[5] = molecular target: T3, Tyrosine-protein phosphatase non-receptor type 11 (Homo sapiens, UniProt Q06124); experiment: Inhibitory potency against Tyrosine phosphatase SHP2
T3 sequence (Q06124 whole entry): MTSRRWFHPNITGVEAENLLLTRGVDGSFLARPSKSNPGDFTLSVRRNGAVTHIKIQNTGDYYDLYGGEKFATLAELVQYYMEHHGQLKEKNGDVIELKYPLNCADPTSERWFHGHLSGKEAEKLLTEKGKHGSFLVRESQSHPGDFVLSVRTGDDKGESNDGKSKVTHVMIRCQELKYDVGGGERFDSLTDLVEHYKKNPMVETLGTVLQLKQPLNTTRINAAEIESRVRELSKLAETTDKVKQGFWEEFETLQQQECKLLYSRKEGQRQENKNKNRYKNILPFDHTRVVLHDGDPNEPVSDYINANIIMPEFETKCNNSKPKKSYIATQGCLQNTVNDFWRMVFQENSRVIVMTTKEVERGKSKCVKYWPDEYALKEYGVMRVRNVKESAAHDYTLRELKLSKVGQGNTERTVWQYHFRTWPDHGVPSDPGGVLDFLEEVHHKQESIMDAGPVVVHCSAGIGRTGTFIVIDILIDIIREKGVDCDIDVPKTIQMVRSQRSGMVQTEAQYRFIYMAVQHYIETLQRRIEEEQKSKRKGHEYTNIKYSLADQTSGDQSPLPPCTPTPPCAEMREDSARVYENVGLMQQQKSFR

[6] = molecular target: T4, Tyrosine-protein phosphatase non-receptor type 1 (Homo sapiens, UniProt P18031); experiment: Inhibition of Protein-tyrosine phosphatase 1B (PTP1B)
T4 sequence (P18031 whole entry): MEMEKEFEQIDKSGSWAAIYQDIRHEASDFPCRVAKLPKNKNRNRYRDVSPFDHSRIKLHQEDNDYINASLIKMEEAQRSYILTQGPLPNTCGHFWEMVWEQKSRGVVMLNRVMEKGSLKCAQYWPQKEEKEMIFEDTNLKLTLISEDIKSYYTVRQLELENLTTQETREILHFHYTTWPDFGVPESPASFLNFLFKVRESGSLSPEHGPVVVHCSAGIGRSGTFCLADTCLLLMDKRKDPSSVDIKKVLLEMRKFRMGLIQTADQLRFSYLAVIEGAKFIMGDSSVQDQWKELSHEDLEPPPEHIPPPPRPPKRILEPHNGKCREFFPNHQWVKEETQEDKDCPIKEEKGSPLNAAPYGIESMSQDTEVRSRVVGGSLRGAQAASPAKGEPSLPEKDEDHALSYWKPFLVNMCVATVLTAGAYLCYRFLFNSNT

Chain of Tyrosine-protein phosphatase non-receptor type 2 (P17706 whole entry, looked up): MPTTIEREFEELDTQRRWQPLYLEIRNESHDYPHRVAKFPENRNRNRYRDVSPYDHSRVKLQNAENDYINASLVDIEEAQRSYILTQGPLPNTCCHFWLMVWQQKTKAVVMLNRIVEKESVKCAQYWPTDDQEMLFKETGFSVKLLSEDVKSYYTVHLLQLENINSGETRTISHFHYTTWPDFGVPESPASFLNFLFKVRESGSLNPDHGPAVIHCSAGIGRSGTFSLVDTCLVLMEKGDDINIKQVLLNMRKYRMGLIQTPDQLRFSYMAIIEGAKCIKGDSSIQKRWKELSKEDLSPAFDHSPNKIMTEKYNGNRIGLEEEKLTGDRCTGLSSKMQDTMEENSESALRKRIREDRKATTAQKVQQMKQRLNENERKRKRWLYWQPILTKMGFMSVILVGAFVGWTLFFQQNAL
Chain of Receptor-type tyrosine-protein phosphatase F (P10586 whole entry): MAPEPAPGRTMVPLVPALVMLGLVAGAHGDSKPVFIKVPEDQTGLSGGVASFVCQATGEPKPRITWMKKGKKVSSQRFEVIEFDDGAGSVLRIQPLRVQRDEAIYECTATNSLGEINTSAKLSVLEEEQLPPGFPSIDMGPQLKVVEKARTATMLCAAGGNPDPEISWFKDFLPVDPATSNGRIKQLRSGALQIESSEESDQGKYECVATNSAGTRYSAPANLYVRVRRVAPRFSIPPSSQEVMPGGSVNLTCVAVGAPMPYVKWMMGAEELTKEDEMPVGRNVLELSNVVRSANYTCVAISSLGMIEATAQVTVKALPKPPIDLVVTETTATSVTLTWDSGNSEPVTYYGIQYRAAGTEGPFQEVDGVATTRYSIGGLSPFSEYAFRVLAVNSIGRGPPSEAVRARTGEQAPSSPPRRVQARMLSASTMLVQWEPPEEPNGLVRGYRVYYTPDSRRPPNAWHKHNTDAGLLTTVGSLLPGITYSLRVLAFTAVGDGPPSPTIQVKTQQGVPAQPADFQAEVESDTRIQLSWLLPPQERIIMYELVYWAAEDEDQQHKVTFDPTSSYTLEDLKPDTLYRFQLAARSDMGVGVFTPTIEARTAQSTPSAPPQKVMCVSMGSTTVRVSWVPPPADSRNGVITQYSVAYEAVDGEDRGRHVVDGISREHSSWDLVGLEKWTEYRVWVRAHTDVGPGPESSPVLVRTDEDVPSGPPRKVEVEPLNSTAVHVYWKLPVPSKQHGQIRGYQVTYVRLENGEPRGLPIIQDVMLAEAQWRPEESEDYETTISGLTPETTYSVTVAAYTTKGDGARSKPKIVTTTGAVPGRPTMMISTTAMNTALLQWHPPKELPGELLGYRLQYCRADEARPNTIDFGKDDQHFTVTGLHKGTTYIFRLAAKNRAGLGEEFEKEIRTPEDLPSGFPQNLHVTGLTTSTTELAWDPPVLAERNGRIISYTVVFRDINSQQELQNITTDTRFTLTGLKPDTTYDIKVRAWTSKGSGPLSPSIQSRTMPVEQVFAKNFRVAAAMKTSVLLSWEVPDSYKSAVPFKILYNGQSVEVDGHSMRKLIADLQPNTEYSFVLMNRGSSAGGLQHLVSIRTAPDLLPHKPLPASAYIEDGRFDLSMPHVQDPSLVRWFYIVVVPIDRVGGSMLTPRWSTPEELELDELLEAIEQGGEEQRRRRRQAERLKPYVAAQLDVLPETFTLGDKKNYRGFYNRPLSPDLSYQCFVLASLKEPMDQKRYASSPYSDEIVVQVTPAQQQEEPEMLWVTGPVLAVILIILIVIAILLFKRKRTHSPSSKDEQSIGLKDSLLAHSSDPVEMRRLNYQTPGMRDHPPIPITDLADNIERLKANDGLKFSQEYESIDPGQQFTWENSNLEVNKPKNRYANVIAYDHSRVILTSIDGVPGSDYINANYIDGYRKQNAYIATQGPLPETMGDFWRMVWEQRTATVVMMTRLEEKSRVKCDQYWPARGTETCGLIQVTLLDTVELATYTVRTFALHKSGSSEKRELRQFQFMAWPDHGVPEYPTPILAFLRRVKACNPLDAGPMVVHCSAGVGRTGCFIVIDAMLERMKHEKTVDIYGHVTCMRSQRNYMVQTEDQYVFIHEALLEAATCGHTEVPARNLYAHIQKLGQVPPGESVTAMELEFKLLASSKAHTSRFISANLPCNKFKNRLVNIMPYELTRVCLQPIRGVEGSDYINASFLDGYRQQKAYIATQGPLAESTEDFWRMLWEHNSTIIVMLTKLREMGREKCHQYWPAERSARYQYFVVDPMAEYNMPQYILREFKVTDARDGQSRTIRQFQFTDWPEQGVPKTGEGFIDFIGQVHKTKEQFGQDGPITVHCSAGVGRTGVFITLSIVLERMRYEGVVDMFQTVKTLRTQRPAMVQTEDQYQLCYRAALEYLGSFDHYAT

COC(=O)c1c(O)cccc1OCCCCNC(=O)C(Cc1ccc(OC(C(=O)O)C(=O)O)cc1)NC(=O)OC(C)(C)C (stereo unspecified)
Ki [1]: > 30 µM
Ki [2]: > 30 µM
Ki [3]: > 30 µM
Ki [4]: 24.8 µM
Ki [5]: > 30 µM

COC(=O)c1c(O)cccc1OCCCCNC(=O)[C@H](Cc1ccc(N(CCC(=O)O)C(=O)C(=O)O)cc1)NC(=O)OC(C)(C)C
Ki [6]: > 200 µM
Ki [4]: > 200 µM

COC(=O)c1c(O)cccc1OCCCCNC(=O)C(Cc1ccc(OC(C(=O)O)C(=O)NC2CC2)cc1)NC(=O)OC(C)(C)C (stereo unspecified)
Ki [6]: 8.4 µM
Ki [4]: > 200 µM

COC(=O)c1c(O)cccc1OCCCCNC(=O)[C@H](Cc1ccc(OCC(=O)O)cc1)NC(=O)OC(C)(C)C
Ki [6]: 220 µM
Ki [4]: > 200 µM

COC(=O)c1c(O)cccc1OCCCCNC(=O)[C@H](Cc1ccc(OC(C)C(=O)O)c(C(=O)O)c1)NC(=O)OC(C)(C)C (stereo partly specified)
Ki [6]: 48.6 µM
Ki [4]: 273 µM

CCC(CN(C(=O)C(=O)O)c1ccc(C[C@H](NC(=O)OC(C)(C)C)C(=O)NCCCCOc2cccc(O)c2C(=O)OC)cc1)C(=O)O (stereo partly specified)
Ki [1]: > 30 µM
Ki [2]: > 30 µM
Ki [3]: > 30 µM
Ki [6]: 1.7 µM
Ki [4]: 9 µM
Ki [5]: > 30 µM

COC(=O)c1c(O)cccc1OCCCCNC(=O)[C@H](Cc1ccc(OCC(=O)O)c(C(=O)O)c1)NC(=O)OC(C)(C)C
Ki [6]: 2.1 µM
Ki [4]: > 30 µM

COC(=O)c1c(O)cccc1OCCCCNC(=O)[C@H](Cc1ccc(OC(C)C(=O)O)c(C(=O)O)c1)NC(=O)[C@H](Cc1ccccc1)NC(=O)OC(C)(C)C (stereo partly specified)
Ki [1]: > 30 µM
Ki [2]: > 30 µM
Ki [3]: > 30 µM
Ki [6]: 0.16 µM
Ki [4]: 1.97 µM
Ki [5]: > 30 µM

COC(=O)c1c(O)cccc1OCCCCNC(=O)[C@H](Cc1ccc(N(CC(C)C(=O)O)C(=O)C(=O)O)cc1)NC(=O)OC(C)(C)C (stereo partly specified)
Ki [6]: 3.2 µM
Ki [4]: 16.7 µM

COC(=O)c1c(O)cccc1OCCCCNC(=O)[C@H](Cc1ccc(OCC(=O)O)c(C(=O)O)c1)NC(C)=O
Ki [6]: 9.4 µM
Ki [4]: 129 µM

COC(=O)c1c(O)cccc1OCCCCNC(=O)[C@H](Cc1ccc(N(CC(C(=O)O)c2ccccc2)C(=O)C(=O)O)cc1)NC(=O)OC(C)(C)C (stereo partly specified)
Ki [6]: 15.2 µM
Ki [4]: 97.8 µM

CCC(CC(=O)O)N(C(=O)C(=O)O)c1ccc(C[C@H](NC(=O)OC(C)(C)C)C(=O)NCCCCOc2cccc(O)c2C(=O)OC)cc1 (stereo partly specified)
Ki [6]: 1.8 µM

COC(=O)c1c(O)cccc1OCCCCNC(=O)C(Cc1ccc(OC(C(N)=O)C(=O)O)cc1)NC(=O)OC(C)(C)C (stereo unspecified)
Ki [6]: 13.8 µM
Ki [4]: 79.5 µM
